The subject of this assay is rabbit thoracic aorta contraction induced by endothelin.

Procedure: Thoracic aorta were isolated from freshly killed male albino rabbits (11 weeks old) and cut into 25 mm strips with the intima denuded. After removing fatty tissues, these arterial segments (2 mm width and 25 mm length) were suspended in 25 ml organ chambers filled with Krebs-Ringer solution (113 mM NaCl, 4.8 mM KCl, 2.2 mM CaCl2, 1.2 mM MgCl2, 25 mM NaHCO3, 1.2 mM KH2 PO4, 5.5 mM glucose) maintained at 37° C. and gassed with 95% O2 /5% CO2.
A preload of 0.5 g was applied after the aorta had been conditioned by application of increasing concentration of KCl. Contractions were measured as an increase in isometric tension.
Test Compound was tested against contractile response of rabbit aorta induced by endothelin (3.2×10^-9 M). […] Test Compound was added after the full contraction response induced by endothelin.

As usually defined, the IC50 is the point on the concentration scale where inhibition reaches its midpoint. A lower IC50 goes with greater potency in that assay. The compound `CC(C)C[C@H](NC(=O)NC1CCCCC1)C(=O)N[C@H](Cc1cn(C)c2ccccc12)C(=O)N[C@H](Cc1ccccn1)C(=O)O` [A] registered an IC50 of 230 nM.
